Data reported in patent US4868195A, “Novel enolamides, pharmaceutical compositions and methods of use thereof for activity as modulators of the arachidonic acid cascade” (Warner-Lambert Company, priority 1988, dated 1989).
Several values for one entry are separate records, joined by “and”; a condition that tells them apart may be missing. Equal values may be shown once.

Biological target: T1, leukotriene receptor (guinea pig lung membranes) (Cavia porcellus, UniProt Q2NNR5)
T1 construct: 20 mg original tissue wet weight of guinea pig lung; tissue Kuiper Rabbit Farm, Gary, IN (animals); host or cells: guinea pig lung, crude membranes
T1 sequence (Q2NNR5 1-340): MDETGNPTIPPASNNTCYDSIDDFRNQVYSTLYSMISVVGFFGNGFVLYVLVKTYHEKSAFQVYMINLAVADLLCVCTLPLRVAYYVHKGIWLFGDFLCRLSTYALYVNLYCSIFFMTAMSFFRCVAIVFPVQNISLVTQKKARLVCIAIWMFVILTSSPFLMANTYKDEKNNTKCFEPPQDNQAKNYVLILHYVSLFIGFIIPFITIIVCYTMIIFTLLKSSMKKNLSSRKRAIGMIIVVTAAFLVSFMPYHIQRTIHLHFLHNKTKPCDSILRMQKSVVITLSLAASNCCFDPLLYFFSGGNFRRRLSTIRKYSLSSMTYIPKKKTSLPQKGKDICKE
Assay: Binding of ^3 H-Leukotriene D4 to Guinea Pig Lung Membranes (RBL)
Conditions: 0.2 nM ^3 H-LTD4, 60 min, 25° C.; read-out: Concentration (M) for 50.0 % Inhibition, IC (RBL)
Description: Additionally, the activity, of the compounds having the Formula I of the present invention is determined by the well known leukotriene receptor binding assay that is described by R. F. Bruns, W. J. Thomsen and T. A. Pugsley in Life Sciences, 33, 645 (1983) or the Herxheimer in vivo antiallergy test described in H. Herxheimer, J. Physiol. (London), Vol. 177, p. 251 (1952).
Binding of ^3 H-Leukotriene D4 to Guinea Pig Lung Membranes (RBL)
[14,15-^3 H]leukotriene D4 (^3 H-LTD4) (25 Ci/mmol and 40 Ci/mmol) is purchased from New England Nuclear. Unlabeled LTC4 is a gift of Ono Pharmaceuticals (Japan). LTC4, LTD4, and LTE4 are purchased as methyl esters from Paesel GmbH (Frankfurt, W. Germany). Concentrations of the Paesel leukotrienes are calculated from their absorbance at 280 nm. Leukotriene esters are saponified overnight under N2 in 3.3% potassium carbonate at room temperature. Tritiated leukotrienes are stored as received from New England Nuclear at -20° C. Ono LTC4 (5 μg/ml) is stored at -60° C. in phosphate buffer pH 6.8. Saponified Paesel leukotrienes are stored at -60° C. in 3.3% potassium carbonate (pH 9.0-9.5). Aliquots of leukotrienes are taken from stock solutions immediately after thawing, after which the stock solutions are immediately refrozen. 2-Amino-2-(hydroxymethyl)-1,3-propanediol (Tris) is Sigma pH 7.7 pre-set crystals, and dimethylsulfoxide is Aldrich Gold Label.
Preparation of crude lung membranes
Two pairs of lungs (1.3 g) from freshly sacrificed 300 g male guinea pigs (older animals gave substantially lower binding) from Kuiper Rabbit Farm, Gary, IN are disrupted with a Polytron PT 10 (setting 4) for 30 seconds in 20 ml ice-cold 50 mM Tris adjusted with HCl to pH 7.7 at 25° C. (Tris buffer), filtered through a single layer of gauze to remove connective tissue, and centrifuged at 50,000 xg for ten min. The pellet is resuspended by homogenization with a Polytron in 20 ml Tris buffer, centrifuged at 50,000 xg for ten min., resuspended, incubated at 37° C. for 30 minutes, and centrifuged again. The final pellet is resuspended in Tris buffer and either used fresh or stored at -70° C.
All incubations are in triplicate for 60 minutes at 25° C. in 12×75 mm polystyrene tubes containing 1 ml Tris buffer with 20 mg original tissue wet weight of guinea pig lung nmembranes, 0.2 nM ^3 H-LTD4 (6,000-11,000 cpm), 10 mM MgCl2, and 1% dimethylsulfoxide Leukotrienes are diluted in Tris buffer. All other test compounds dissolved at 10 mM in dimethylsulfoxide on the same day as the experiment, and diluted in dimethylsulfoxide to 100× the final incubation concentration. Control incubations receive an equal volume (10 μl) of dimethylsulfoxide; the resulting concentration of dimethylsulfoxide had no effect on binding. ^3 H-LTD4 is diluted to 2 nM in Tris buffer. The membrane suspension (20 mg/0.89 ml) contains sufficient MgCl2 to give 10 mM final concentration in the incubation. […] All additions are performed at 0° C. Immediately after the last addition, the incubation is initiated by agitating the rack of tubes on a vortex mixer and warming to 25° C. in a water bath. Tubes are vortexed at least once more during the incubation to ensure that the membranes remained suspended. Incubations are terminated after 60 minutes by filtering under reduced pressure through 25 mm Whatman GF/B filters followed by rapid washing three times with 4 ml of ice-cold Tris buffer. Filters are added to scintillation vials with 8 ml Formula 947 (New England Nuclear), left overnight, shaken, and the radioactivity counted in a scintillation counter (efficiency 40%). Nonspecific binding, defined as binding of ^3 H-LTD4 in the presence of 100 nM LTC4, is 300-500 cpm for all lots of ^3 H-LTD4. Binding to the filters in the absence of tissue is about 100 cpm, and is not affected by unlabeled LTC4. Specific binding, defined as total binding minus nonspecific binding, varied considerably from lot to lot of ^3 H-LTD4. […]

## COc1cccc(CCc2ccc(NC(=O)C3=C(O)c4ccccc4S(=O)(=O)C3)cc2)c1OC [Example 28, N-[4-[2-(2,3-Dimethoxyphenyl)ethyl]phenyl]-4-hydroxy-2H-1-benzothiopyran-3-carboxamide, 1,1-dioxide]
  IC50: 5e-05 M and 3.56e-05 M

## O=C(Nc1ccc(CCc2cccc(O)c2O)cc1)C1CS(=O)(=O)c2ccccc2C1=O (centres unmarked) [Example 29, N-[4-[2-(2,3-Dihydroxyphenyl)ethyl]phenyl]-3,4-dihydro-4-oxo-2H-1-benzothiopyran-3-carboxamide, 1,1-dioxide]
  IC50: 3.92e-05 M

## COc1ccc(CCc2ccc(NC(=O)C3=C(O)c4ccccc4S(=O)(=O)C3)cc2)c(OC)c1 [Example 30, N-[4-[2-(2,4-Dimethoxyphenyl)ethyl]phenyl]-4-hydroxy-2H-1-benzothiopyran-3-carboxamide, 1,1-dioxide]
  IC50: 2.26e-05 M

## O=C(Nc1ccc(CCc2ccc(O)cc2O)cc1)C1=C(O)c2ccccc2S(=O)(=O)C1 [Example 31, N-[4-[2-(2,4-Dihydroxyphenyl)ethyl]phenyl]-4-hydroxy-2H-1-benzothiopyran-3-carboxamide, 1,1-dioxide]
  IC50: 5.2e-05 M

## COc1ccc(OC)c(CCc2ccc(NC(=O)C3=C(O)c4ccccc4S(=O)(=O)C3)cc2)c1 [Example 32, N-[4-[2-(2,5-Dimethoxyphenyl)ethyl]phenyl]-4-hydroxy-2H-1-benzothiopyran-3-carboxamide, 1,1-dioxide]
  IC50: 2.35e-05 M

## COc1cc(CCc2ccc(NC(=O)C3=C(O)c4ccccc4S(=O)(=O)C3)cc2)cc(OC)c1 [Example 34, N-[4-[2-(3,5-Dimethoxyphenyl)ethyl]phenyl]-4-hydroxy-2H-1-benzothiopyran-3-carboxamide, 1,1-dioxide]
  IC50: 1.58e-05 M

## COc1cc(CCc2ccc(NC(=O)C3=C(O)c4ccccc4S(=O)(=O)C3)cc2)cc(OC)c1OC [Example 35]
  IC50: 4.23e-05 M

## O=C(Nc1ccc(CCc2cccc(C(F)(F)F)c2)cc1)C1=C(O)c2ccccc2S(=O)(=O)C1 [Example 62, N-[4-[2-(3-Trifluoromethylphenyl)ethyl]phenyl]-4-hydroxy-2H-1-benzothiopyran-3-carboxamide, 1,1-dioxide]
  IC50: 1e-05 M and 5.95e-06 M and 4.98e-06 M

## O=C(Nc1ccc(CCc2cc(C(F)(F)F)cc(C(F)(F)F)c2)cc1)C1=C(O)c2ccccc2S(=O)(=O)C1 [Example 63, N-[4-[2-[3,5-bis-Trifluoromethyl(phenyl)]ethyl]phenyl]-4-hydroxy-2H-1-benzothiopyran-3-carboxamide, 1,1-dioxide]
  IC50: 4.42e-06 M and 3.11e-06 M

## Nc1ccc(C=Cc2ccc(NC(=O)C3CS(=O)(=O)c4ccccc4C3=O)cc2)cc1 (centres unmarked) [Example 66, 2H-1-Benzothiopyran-3-carboxamide, N-[4-[2-(4-aminophenyl)ethenyl]phenyl]-3,4-dihydro-4-oxo-, 1,1-dioxide]
  IC50: 3.15e-05 M

## O=C(Nc1ccc(CCc2cccc(Cl)c2)cc1)C1=C(O)c2ccccc2S(=O)(=O)C1 [Example 68, 2H-1-Benzothiopyran-3-carboxamide, N-[4-[2-(3-chlorophenyl)ethyl]phenyl]-4-hydroxy-, 1,1-dioxide]
  IC50: 4.99e-06 M

## O=C(Nc1ccc(CCc2ccc(Cl)c(Cl)c2)cc1)C(=O)C1=C(O)c2ccccc2S(=O)(=O)C1 [Example 69, 2H-1-Benzothiopyran-3-acetamide, N-[4-[2-(3,4-dichlorophenyl)ethyl]phenyl]-4-hydroxy-α-oxo-, 1,1-dioxide]
  IC50: 2.04e-05 M

## O=C(Nc1ccc(CCc2ccc(Oc3ccccc3)cc2)cc1)C1=C(O)c2ccccc2S(=O)(=O)C1 [Example 75, 2H-1-Benzothiopyran-3-carboxamide, 4-hydroxy-N-[4-[2-(4-phenoxyphenyl)ethyl]phenyl]-, 1,1-dioxide]
  IC50: 5.58e-06 M

## CC(C)(C)c1cc(CCc2ccc(NC(=O)C3=C(O)c4ccccc4S(=O)(=O)C3)cc2)cc(C(C)(C)C)c1O [Example 77, 2H-1-Benzothiopyran-3-carboxamide, N-[4-[2-[3,5-bis(1,1-dimethylethyl)-4-hydroxyphenyl]ethyl]phenyl]-4-hydroxy-, 1,1-dioxide]
  IC50: 5.96e-06 M
